This is an account of results in patent publication US7446122B2, “Substituted indole derivatives” (Cephalon, Inc., priority 2003, dated 2008).

Assay [1] deals with PBL (peripheral blood leukocytes). The assay can be described thus: Cell cytotoxicity, MTT assay, PBL. In kind it is cell-based. As to conditions: Leukocyte, 72 h, three days incubation. How it is done: (§1) Normal prostate cells (PREC, Cambrex East Rutherford N.J.), prostate cancer cell line (LNCaP, ATCC), PBL (peripheral blood leukocytes-buffy coat San Diego Blood Bank), and primary CLL cells were incubated for one to two days in RPMI-1640 and 10% FBS (fetal bovine serum). They were plated in 96-well plates at 100,000 cells/well. Titrated concentrations of the compound to be tested were added to the culture medium. The cells were incubated three days at 37° C., 5% CO2. Viability of the cells was assayed by standard MTT assay. Each drug concentration was done in duplicate. MTT assay: 10 μl of 12 mM 3,[4,5-dimethylthiazol-2-yl]-2,5-diphenyltetrazolium bromide (MTT) (SIGMA) was added to each well. The cells were incubated at 37° C., 5% CO2 for 4 hours. 100 μl of 20% SDS, 0.015M HCl was added to each well and the cells were incubated overnight. The plates were read at absorbance 595 nm.
For orientation: Tetrazolium assays rely on reduction of a dye to a coloured formazan, in cell work by metabolically active cells.

Assay [2] has as its system prostate cancer cell line (LNCaP). The assay can be described thus: Cell cytotoxicity, MTT assay, LNCaP. It is filed as cell-based. As to conditions: Homo sapiens, 72 h, three days incubation. Here is the method: as §1
The subject of the next assay is primary CLL cells. The experiment in a line: Cell cytotoxicity, MTT assay, primary CLL cells. In kind it is cell-based. The note with it: 72 h, three days incubation. How it is done:
as §1

Assay [3] concerns Normal prostate cells (PREC). The experiment in a line: Cell cytotoxicity, MTT assay, PREC. It is filed as cell-based. The note with it: Homo sapiens, 72 h, three days incubation. How it is done:
as §1

For assay [4], the target named is T1, Cyclooxygenase-2 (human recombinant, expressed in Sf9 cell) (Homo sapiens, UniProt P35354).
T1 construct: purchased Cayman 60122; host or cells: Sf9 cell
T1 sequence (P35354 18-604): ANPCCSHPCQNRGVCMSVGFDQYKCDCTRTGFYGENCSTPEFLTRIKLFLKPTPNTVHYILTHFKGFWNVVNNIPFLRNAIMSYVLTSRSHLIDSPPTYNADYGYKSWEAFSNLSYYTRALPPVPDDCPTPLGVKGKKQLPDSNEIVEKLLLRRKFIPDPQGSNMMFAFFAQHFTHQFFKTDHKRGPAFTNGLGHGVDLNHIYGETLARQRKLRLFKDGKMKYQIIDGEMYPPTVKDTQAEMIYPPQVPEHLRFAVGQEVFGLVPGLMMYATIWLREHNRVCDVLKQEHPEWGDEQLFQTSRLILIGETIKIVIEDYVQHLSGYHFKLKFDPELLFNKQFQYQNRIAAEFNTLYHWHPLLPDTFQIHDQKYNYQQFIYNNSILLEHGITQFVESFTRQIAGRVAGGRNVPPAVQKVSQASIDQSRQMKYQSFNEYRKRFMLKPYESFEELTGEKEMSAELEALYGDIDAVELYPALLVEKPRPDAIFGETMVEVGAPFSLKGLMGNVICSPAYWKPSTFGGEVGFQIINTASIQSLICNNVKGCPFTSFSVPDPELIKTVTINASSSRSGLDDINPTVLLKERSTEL
The assay can be described thus: Cox-2 assay: human recombinant cyclooxygenase-2, PGE2 by EIA. In kind it is biochemical. The note with it: human recombinant enzyme; for IC50: 0.3 μM arachidonic acid, PGE2; for inhibition at 10 µM: compounds are screened at 10 μM. How it is done: Test compound and/or vehicle is pre-incubated with 0.11 U cyclooxygenase-2, 1 mM reduced glutathione (GSH), 500 μM phenol and 1 μM hematin for 15 minutes at 37° C. The reaction is initiated by addition of 0.3 μM arachidonic acid as substrate in Tris-HCl pH 7.7 and terminated after a 5 minute incubation at 37° C. by addition of 1N HCl. Following centrifugation, substrate conversion to PGE2 is measured by an Amersham EIA kit. Compounds are screened at 10 μM. […] J. Physiol.

For a further assay, the target named is T2, COX-1 (Homo sapiens, UniProt P23219).
T2 construct: endogenous in cells; host or cells: human platelets
T2 sequence (P23219 24-599): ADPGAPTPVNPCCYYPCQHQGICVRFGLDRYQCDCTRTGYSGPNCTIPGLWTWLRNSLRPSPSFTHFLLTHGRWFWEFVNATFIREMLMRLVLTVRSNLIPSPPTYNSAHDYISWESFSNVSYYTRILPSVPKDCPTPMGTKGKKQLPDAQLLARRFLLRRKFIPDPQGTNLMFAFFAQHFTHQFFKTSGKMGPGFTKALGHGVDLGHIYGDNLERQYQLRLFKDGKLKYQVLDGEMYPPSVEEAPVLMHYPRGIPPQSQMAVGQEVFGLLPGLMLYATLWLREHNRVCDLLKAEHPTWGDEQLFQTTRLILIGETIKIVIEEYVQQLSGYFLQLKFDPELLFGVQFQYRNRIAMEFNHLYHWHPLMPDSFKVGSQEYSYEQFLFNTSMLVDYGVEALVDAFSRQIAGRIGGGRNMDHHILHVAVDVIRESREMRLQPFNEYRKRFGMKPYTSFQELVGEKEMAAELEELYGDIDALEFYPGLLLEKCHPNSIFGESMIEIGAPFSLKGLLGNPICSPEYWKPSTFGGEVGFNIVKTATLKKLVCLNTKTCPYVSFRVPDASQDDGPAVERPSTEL
The experiment in a line: Cox-1 assay: PGE2 formation in human platelets. It is filed as cell-based. The note with it: for IC50: arachidonic acid 100 μM, PGE2; for inhibition at 10 µM: compounds are screened at 10 μM. How it is done:
Test compound and/or vehicle is incubated with human platelets (10^8/ml) containing the phospholipase inhibitor MLnFP (100 μM) for 15 minutes at 37° C. Arachidonic acid (100 μM) is then added for a further 15 minute incubation period. The reaction is stopped by addition of 1 N HCl and neutralized with 1N NaOH. PGE2 levels in the supernatant are determined using the Amersham EIA kit. […]

For orientation: IC50 means the concentration at which inhibition is half-maximal. Take `CCC1(CCO)OCCc2c1[nH]c1cccc(Cl)c21` (stereo not drawn) [Compound 38, 2-(5-CHLORO-1-ETHYL-1,3,4,9-TETRAHYDRO-PYRANO[3,4-b]INDOL-1-YL)-ETHANOL]: the IC50 in assay [1] came to 73 µM; in assay [2], 23 µM.

The term inhibition denotes the change of the read-out against control, counted positive when it falls. For the molecule `CCc1cccc2c3c([nH]c12)C(CC)(CC(=O)O)OCC3` (stereo not drawn) [Etodolac, reference compound], the IC50 with primary CLL cells is 200 µM; in assay [1] it was 350 µM; in assay [3] it was 416 µM; in assay [4] it was > 300 µM; in assay [2] it was 122 µM. Further, the inhibition at 10 µM in assay [4] was -14%.

`CCC1(CCO)OCCc2c1[nH]c1c(Cl)cc(Cl)cc21` (stereo not drawn) [Compound 46, 2-(6,8-DICHLORO-1-ETHYL-1,3,4,9-TETRAHYDRO-PYRANO[3,4-b]INDOL-1-YL)-ETHANOL]: the values for the IC50 in assay [1] and in assay [2] were 20 µM and 18 µM, respectively.

With `CCC1(CCO)OCCc2c1[nH]c1c(Cl)cccc21` (stereo not drawn) [Compound 27, 2-(8-CHLORO-1-ETHYL-1,3,4,9-TETRAHYDRO-PYRANO[3,4-b]INDOL-1-YL)-ETHANOL], the IC50 is 52 µM in the assay with primary CLL cells; > 300 µM against COX-1; 150 µM in assay [1]; 140 µM in assay [3]; > 300 µM in assay [4]; 52 µM in assay [2]. Moreover, the inhibition at 10 µM was determined as 24% against COX-1 and 3% in assay [4].

On to `CCC1(CCO)OCCc2c1[nH]c1c(C)cc(C)cc21` (stereo not drawn) [Compound 45], for which the IC50 in assay [1] came to 90 µM; in assay [2], 8 µM.

Consider `CCc1cccc2c3c([nH]c12)[C@@](CC)(CCO)OCC3` [Compound 35, R-2-(1,8-DIETHYL-1,3,4,9-TETRAHYDRO-PYRANO[3,4-b]INDOL-1-YL)-ETHANOL], for which the IC50 in the assay with primary CLL cells is 100 µM; at COX-1 it was > 300 µM; in assay [1], 140 µM; in assay [3], 220 µM; in assay [4] it was > 300 µM; in assay [2], 68 µM. The inhibition at 10 µM on COX-1 is -69%; in assay [4], -10%.

Take `CCC1(CCO)OCCc2c1[nH]c1cccc(F)c21` (stereo not drawn) [Compound 39, 2-(1-ETHYL-5-FLUORO-1,3,4,9-TETRAHYDRO-PYRANO[3,4-b]INDOL-1-YL)-ETHANOL]: the IC50 is 120 µM in assay [1] and 46 µM in assay [2].
